In experiment [1] the target is T1, human recombinant GABAAR containing α5β3γ2 subunits (benzodiazepine site) (Homo sapiens, UniProt P18507+P31644).
T1 construct: expressed in transfected cells; host or cells: mouse L(tk−) cells, dexamethasone-inducible vector pMSGneo
Description: In vitro radioligand binding assay (α5-GABAAR Ki). As to conditions: inhibition of [3H]Ro15-1788 binding, membranes of L(tk−) cells expressing human α5β3γ2; read-out: α5-GABAAR Ki. In outline: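 Membranes from mouse L(tk^−) cells stably expressing human α5β3γ2 GABAAR incubated 1 h at 4° C with 4 nM [^3H]Ro15-1788 and test compound; nonspecific binding with 1 μM TP003. Filter-bound radioactivity counted; Ki from IC50 by Cheng-Prusoff using measured Kd.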

Experiment [2] has as its target T2, human α5β3γ2 GABAARs in mouse L(tk−) cells (Homo sapiens, UniProt P18507+P31644).
T2 construct: expressed in transfected cells; host or cells: mouse L(tk−) cells, dexamethasone-inducible vector pMSGneo
Description: In vitro electrophysiological recording assay (α5-GABAAR relative efficacy), QPatch. The experiment is classed as cell-based. As to conditions: GABA EC10-20. The source says:
Mouse L(tk^−) cells stably expressing human α1β3γ2, α2β3γ2, α3β3γ2, α5β3γ2 GABAARs generated by transfection of the individual subunits in the dexamethasone-inducible expression vector pMSGneo in mouse L(tk^−) cells (Hadingham et al., 1993, Mol. Pharmacol. 43:970-975 and 1993, Mol. Pharmacol. 44:1211-1218) were used for binding and functional assays. For certain compounds, HEK293 cells stable expressing the human α1β3γ2L, α2β3γ2L, α3β3γ2L and α5β3γ2L GABAA receptors were used to evaluate their functional effects in a SyncroPatch electrophysiology assay.
For QPatch electrophysiology testing, 1 μM dexamethasone was added to the culture medium of L(tk^−) cells 24 hours before the recordings were performed. Cells were typically used for electrophysiology experiments 72-96 hours after splitting.
The efficacy of modulators was evaluated using either the automated patch-clamp platform QPatch16 (Sophion, Copenhagen, Denmark) or the SyncroPatch 384i (Nanion Technologies, Germany). Cells were harvested from flasks by enzymatic dissociation and re-suspended in serum-free medium.
For QPatch recordings, all experiments were carried out at room temperature (20-22° C.) using a standard whole cell procedure and physiological solutions. Gigaseals were formed upon execution of a combined suction/voltage protocol with subsequent increased suction leading to the whole-cell configuration. The currents recorded were acquired at 1 KHz and filtered at 0.3 KHz using a Bessel filter. Whole-cell currents were measured at a holding potential of −65 mV.
For QPatch recordings, the extracellular solution contained of (in mM): 145 NaCl, 4 KCl, 1 MgCl2, 2CaCl2, 10 HEPES, 10 D-glucose (pH 7.4), and the intracellular solution consisted of (in mM): 96 KCl, 28 CsCl, 25 KOH, 4.3 CaCl2), 1.4 MgCl2, 10 EGTA, HEPES, 3 MgATP (pH 7.2). The osmolarities of the extracellular and intracellular solutions were 305 and 295 mOsm respectively.
The effects of modulators were evaluated in the presence of a submaximal GABA concentration, giving typically 10-20% activation (GABA EC10-20) of the response elicited by a saturating GABA concentration. For QPatch recordings, to check and ensure baseline current stability before compound addition, five consecutive applications of GABA EC10-20 alone (each application with a 2 s duration, separated by minimum 1 min wash off periods) were performed before compound addition. The test compound was applied using the pipetting system of the QPatch system 1 min at least prior to co-application with GABA EC10-20. For SyncroPatch recordings, GABA EC20 alone was applied three times (1 s long applications, with wash steps in-between) before compound addition. This was followed by a 1-2 min pre-incubation with the test compound and then re-application of GABA EC10-20 in the presence of the compound. Finally, following a further wash step, a saturating concentration of GABA was applied, allowing the accurate evaluation for each cell of the percentage baseline activation elicited by the submaximal GABA applied.
The compounds were first dissolved in DMSO as a 10 mM stock and then further diluted to the testing concentrations so that the final DMSO concentration in the extracellular recording solution was kept constant at 0.1% for the QPatch recordings, or 0.2% for the SyncroPatch recordings.
The % efficacy of modulators was determined from the GABA elicited currents recorded in the presence and absence of the test compound, using the formula:
[((compound peak current−leak)−(GABA peak current−leak))/(GABA peak current−leak)]*100,
where ‘leak’ is the leak baseline current at −65 mV, ‘compound peak current’ is the current elicited by co-application of compound and GABA, and ‘GABA peak current’ is the current elicited by GABA alone during the 5th GABA application. The results were presented as ‘relative efficacy’ for each compound generally at a concentration equal or higher than 100 times their determined Ki. […]
For orientation: Patch clamp records ionic current or voltage across a cell membrane.

Counter-ions that a name gives are not always drawn.

T1 sequence (P31644 32-462): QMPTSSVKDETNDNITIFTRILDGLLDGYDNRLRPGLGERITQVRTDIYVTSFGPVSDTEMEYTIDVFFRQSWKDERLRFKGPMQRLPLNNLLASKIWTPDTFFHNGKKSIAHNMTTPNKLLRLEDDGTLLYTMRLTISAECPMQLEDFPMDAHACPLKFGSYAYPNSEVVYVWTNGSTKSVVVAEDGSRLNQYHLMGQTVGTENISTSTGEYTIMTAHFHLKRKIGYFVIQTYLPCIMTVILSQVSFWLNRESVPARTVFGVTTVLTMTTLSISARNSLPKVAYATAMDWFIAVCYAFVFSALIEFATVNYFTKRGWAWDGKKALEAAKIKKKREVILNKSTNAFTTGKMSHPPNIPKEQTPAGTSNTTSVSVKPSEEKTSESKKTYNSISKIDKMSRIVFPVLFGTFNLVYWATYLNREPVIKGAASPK
T1 sequence (P28472 26-473 partner): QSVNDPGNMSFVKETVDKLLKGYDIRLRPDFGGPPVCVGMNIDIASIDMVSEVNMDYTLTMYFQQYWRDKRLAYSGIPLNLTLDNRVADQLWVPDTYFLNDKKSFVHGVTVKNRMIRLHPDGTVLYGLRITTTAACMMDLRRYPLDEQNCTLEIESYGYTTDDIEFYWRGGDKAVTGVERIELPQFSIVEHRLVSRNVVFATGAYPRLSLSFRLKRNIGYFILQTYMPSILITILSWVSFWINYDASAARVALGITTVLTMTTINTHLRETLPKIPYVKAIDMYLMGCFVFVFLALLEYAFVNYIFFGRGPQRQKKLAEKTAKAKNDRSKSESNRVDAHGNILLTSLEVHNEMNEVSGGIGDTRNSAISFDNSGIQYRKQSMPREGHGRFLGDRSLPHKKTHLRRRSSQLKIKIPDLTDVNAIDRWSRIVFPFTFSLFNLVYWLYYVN
T1 sequence (P18507 40-475): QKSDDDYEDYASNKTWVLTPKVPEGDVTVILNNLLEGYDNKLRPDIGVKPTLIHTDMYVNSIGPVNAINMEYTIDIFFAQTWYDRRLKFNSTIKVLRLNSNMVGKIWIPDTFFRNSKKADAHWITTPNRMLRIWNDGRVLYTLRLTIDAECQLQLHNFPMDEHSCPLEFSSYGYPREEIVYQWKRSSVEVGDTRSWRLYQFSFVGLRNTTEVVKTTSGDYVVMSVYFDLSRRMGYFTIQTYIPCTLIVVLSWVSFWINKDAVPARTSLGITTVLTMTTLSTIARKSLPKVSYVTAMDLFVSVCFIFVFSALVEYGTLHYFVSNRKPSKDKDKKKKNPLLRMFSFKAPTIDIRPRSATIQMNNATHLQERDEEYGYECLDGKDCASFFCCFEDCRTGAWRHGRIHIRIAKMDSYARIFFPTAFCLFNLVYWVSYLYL
T2 sequence (P31644 32-462): as the sequence (P31644 32-462) above
T2 sequence (P28472 26-473 partner): as the sequence (P28472 26-473 partner) above
T2 sequence (P18507 40-475): as the sequence (P18507 40-475) above

Usually Ki stands for a measure of affinity in units of concentration, obtained from inhibition or displacement. Regarding `COc1ccc(-c2cnc(NC(=O)c3c(-c4ccccc4)noc3C)c(OC)n2)cn1` [Example 71, N-[3-Methoxy-5-(6-methoxy-3-pyridyl)pyrazin-2-yl]-5-methyl-3-phenyl-isoxazole-4-carboxamide], the inhibition constant (Ki) in experiment [1] came to 2.8 nM. Also, in experiment [2] (Conc 0.3 μM), the “α5-GABAAR Relative Efficacy (to DMCM), Qpatch” value (shortened to “α5-GABAAR Relative Efficacy”) was −0.94.

Consider `COc1nc(-n2cnc(C(F)(F)F)c2)ccc1NC(=O)c1c(-c2ccccc2)noc1C` [Example 140, N-[2-Methoxy-6-[4-(trifluoromethyl)imidazol-1-yl]-3-pyridyl]-5-methyl-3-phenyl-isoxazole-4-carboxamide], for which the Ki in experiment [1] was found to be 5.7 nM. Moreover, the “α5-GABAAR Relative Efficacy” value in experiment [2] (Conc 1 μM) is listed as −0.79.

As to `COc1nc(-n2ccnc2)ccc1NC(=O)c1c(-c2ccccc2)nnn1C` [Example 154, N-(6-(1H-Imidazol-1-yl)-2-methoxypyridin-3-yl)-1-methyl-4-phenyl-1H-1,2,3-triazole-5-carboxamide], the inhibition constant Ki in experiment [1] stood at 25.3 nM. In addition, in experiment [2] (Conc 3 μM), the “α5-GABAAR Relative Efficacy” value is reported as −0.89.

Regarding `COc1nc(-c2cnoc2)cnc1NC(=O)c1c(-c2ccccc2)noc1C` [Example 120, N-(5-Isoxazol-4-yl-3-methoxy-pyrazin-2-yl)-5-methyl-3-phenyl-isoxazole-4-carboxamide], the inhibition constant Ki in experiment [1] was 4.6 nM. For the same compound, in experiment [2] (Conc 1 μM), the “α5-GABAAR Relative Efficacy” value is given as −0.73.

`COc1nc(-c2cnc(N)cn2)cnc1NC(=O)c1c(-c2ccccc2)noc1C` [Example 150, N-[5-(5-Aminopyrazin-2-yl)-3-methoxy-pyrazin-2-yl]-5-methyl-3-phenyl-isoxazole-4-carboxamide]: in experiment [1], the inhibitory constant (Ki) is 5.1 nM. Further, the “α5-GABAAR Relative Efficacy” value in experiment [2] (Conc 1 μM) is listed as −0.83.

In the case of `COc1nc(-c2cnc(NC3CNC3)nc2)ccc1NC(=O)c1c(-c2ccccc2)noc1C` [Example 188, N-[6-[2-(Azetidin-3-ylamino)pyrimidin-5-yl]-2-methoxy-3-pyridyl]-5-methyl-3-phenyl-isoxazole-4-carboxamide], in experiment [1], the Ki was determined as 0.5 nM. Besides, the “α5-GABAAR Relative Efficacy” value in experiment [2] (Conc 0.1 μM) is on record as −1.08.

In the case of `COc1nc(-c2ccc(CO)nc2)ccc1NC(=O)c1c(-c2ccccc2)noc1C` [Example 27, N-[6-[6-(Hydroxymethyl)-3-pyridyl]-2-methoxy-3-pyridyl]-5-methyl-3-phenyl-isoxazole-4-carboxamide], the Ki in experiment [1] came out at 2.3 nM. The “α5-GABAAR Relative Efficacy” value in experiment [2] (Conc 0.3 μM) was −0.83.

Take `COc1nc(-c2cnc3c(c2)OCO3)ccc1NC(=O)c1c(-c2ccccc2)noc1C` [Example 106, N-(6-([1,3] Dioxolo[4,5-b]pyridin-6-yl)-2-methoxypyridin-3-yl)-5-methyl-3-phenylisoxazole-4-carboxamide]: in experiment [1], the Ki came out at 11.4 nM. For the same compound, in experiment [2] (Conc 3 μM), the “α5-GABAAR Relative Efficacy” value is on record as −0.40.

As for `COc1cc(-c2cnn(C)c2)cnc1NC(=O)c1c(-c2ccccc2)noc1C` [Example 15, N-[3-Methoxy-5-(1-methylpyrazol-4-yl)-2-pyridyl]-5-methyl-3-phenyl-isoxazole-4-carboxamide], in experiment [1], the Ki amounted to 7 nM. Also, the “α5-GABAAR Relative Efficacy” value in experiment [2] (Conc 1 μM) was −0.19.

Consider `COc1nc(-c2cn(CCN)cn2)ccc1NC(=O)c1c(-c2ccccc2)noc1C` [Example 200, N-(6-(1-(2-Aminoethyl)-1H-imidazol-4-yl)-2-methoxypyridin-3-yl)-5-methyl-3-phenylisoxazole-4-carboxamide dihydrochloride], for which, in experiment [1], the Ki was 16.8 nM. For the same compound, the “α5-GABAAR Relative Efficacy” value in experiment [2] (Conc 3 μM) is listed as −0.53.

On to `COc1nc(-c2ccc3c(c2)nc(C)n3C)ccc1NC(=O)c1c(-c2ccccc2)noc1C` [Example 111, N-(6-(1,2-Dimethyl-1H-benzo[d]imidazol-5-yl)-2-methoxypyridin-3-yl)-5-methyl-3-phenylisoxazole-4-carboxamide], for which the Ki in experiment [1] was determined as 13.1 nM. Further, in experiment [2] (Conc 3 μM), the “α5-GABAAR Relative Efficacy” value is on record as −0.46.

As to `COc1nc(-c2ccc3nc(N)nn3c2)ccc1NC(=O)c1c(-c2ccccc2)noc1C` [Example 57, N-[6-(2-Amino-[1,2,4]triazolo[1,5-a]pyridin-6-yl)-2-methoxy-3-pyridyl]-5-methyl-3-phenyl-isoxazole-4-carboxamide], the inhibitory constant (Ki) in experiment [1] worked out at 1.5 nM. Further, the “α5-GABAAR Relative Efficacy” value in experiment [2] (Conc 0.3 μM) is −0.57.

As for `COc1nc(-c2ncnn2C)ccc1NC(=O)c1c(-c2ccccc2)noc1C` [Example 52, N-[2-Methoxy-6-(2-methyl-1,2,4-triazol-3-yl)-3-pyridyl]-5-methyl-3-phenyl-isoxazole-4-carboxamide], the inhibitory constant (Ki) in experiment [1] came out at 9.8 nM. Also, the “α5-GABAAR Relative Efficacy” value in experiment [2] (Conc 1 μM) is recorded as −0.49.

Turning to `COc1nc(-c2cnc(NCCN(C)C)nc2)ccc1NC(=O)c1c(-c2ccccc2)noc1C` [Example 167, N-[6-[2-[2-(Dimethylamino)ethylamino]pyrimidin-5-yl]-2-methoxy-3-pyridyl]-5-methyl-3-phenyl-isoxazole-4-carboxamide], the Ki in experiment [1] was determined as 0.7 nM. Also, the “α5-GABAAR Relative Efficacy” value in experiment [2] (Conc 1 μM) is given as −0.92.

Regarding `COc1nc(-c2cncnc2)ccc1NC(=O)c1c(-c2ccccc2)noc1C` [Example 7, N-(2-Methoxy-6-pyrimidin-5-yl-3-pyridyl)-5-methyl-3-phenyl-isoxazole-4-carboxamide], the Ki in experiment [1] was 2 nM. In addition, in experiment [2] (Conc 0.3 μM), the “α5-GABAAR Relative Efficacy” value is listed as −0.77.

`COc1nc(-c2ccn3nc(N)nc3c2)ccc1NC(=O)c1c(-c2ccccc2)nnn1C` [Example 174, N-(6-(2-Amino-[1,2,4]triazolo[1,5-a]pyridin-7-yl)-2-methoxypyridin-3-yl)-1-methyl-4-phenyl-1H-1,2,3-5-carboxamide]: the inhibition constant (Ki) in experiment [1] stood at 1.4 nM. For the same compound, the “α5-GABAAR Relative Efficacy” value in experiment [2] (Conc 0.3 μM) is listed as −0.84.

As to `COc1nc(-c2cnn(-c3ccncc3)c2)ccc1NC(=O)c1c(-c2ccccc2)noc1C` [Example 110, N-(2-Methoxy-6-(1-(pyridin-4-yl)-1H-pyrazol-4-yl)pyridin-3-yl)-5-methyl-3-phenylisoxazole-4-carboxamide], the Ki in experiment [1] came to 29.1 nM. Also, the “α5-GABAAR Relative Efficacy” value in experiment [2] (Conc 3 μM) was −0.53.

`COc1nc(-c2ccc3[nH]c(=O)n(C)c3c2)ccc1NC(=O)c1c(-c2ccccc2)noc1C` [Example 77, N-(2-Methoxy-6-(3-methyl-2-oxo-2,3-dihydro-1H-benzo[d]imidazol-5-yl)pyridin-3-yl)-5-methyl-3-phenylisoxazole-4-carboxamide]: the Ki in experiment [1] came to 16.1 nM. Besides, the “α5-GABAAR Relative Efficacy” value in experiment [2] (Conc 3 μM) was −0.22.

`COc1nc(-c2cncnc2)cnc1NC(=O)c1c(-c2ccccc2)noc1C` [Example 56, N-(3-Methoxy-5-(pyrimidin-5-yl)pyrazin-2-yl)-5-methyl-3-phenylisoxazole-4-carboxamide]: the Ki in experiment [1] was determined as 2.3 nM. In experiment [2] (Conc 0.3 μM), the “α5-GABAAR Relative Efficacy” value is given as −0.64.

For `COc1cc(-c2cnn(C)c2)ccc1NC(=O)c1c(-c2ccccc2)noc1C` [Example 12, N-[2-Methoxy-4-(1-methylpyrazol-4-yl)phenyl]-5-methyl-3-phenyl-isoxazole-4-carboxamide], the inhibitory constant (Ki) in experiment [1] amounted to 17.1 nM. The “α5-GABAAR Relative Efficacy” value in experiment [2] (Conc 3 μM) is listed as −0.68.

These data come from patent publication US20240425491A1, “HETEROARYL COMPOUNDS USEFUL IN THE TREATMENT OF COGNITIVE DISORDERS” (University College Cardiff Consultants Limited, priority 2021, published 2024).
